Biological target: Tyrosine-protein kinase SYK (Homo sapiens, UniProt P43405)
Experiment: Syk Kinase Inhibition Assay: The in vitro inhibitory activity of the compound of the present invention against Syk kinase activity was assayed under the following conditions: the purified human Syk protein used in the test were purchased from Carna Biosciences, Inc. For the inhibitory activity assay on the compound, the compound of the present invention was first serially diluted with dimethyl …
Description: Syk Kinase Inhibition Assay: The in vitro inhibitory activity of the compound of the present invention against Syk kinase activity was assayed under the following conditions: the purified human Syk protein used in the test were purchased from Carna Biosciences, Inc. For the inhibitory activity assay on the compound, the compound of the present invention was first serially diluted with dimethyl sulfoxide (DMSO). […] The kinase reaction was stopped by the addition thereto of EDTA.

| Compound | IC50 |
| --- | --- |
| NC(=O)c1nnc(N[C@@H]2CCCC[C@@H]2N)nc1Nc1nc(-c2ccccc2)cs1 | 0.38 nM |
| NC(=O)c1nnc(N[C@@H]2CCOC[C@@H]2N)nc1Nc1csc2ccccc12 | 0.89 nM |
| Cc1cc(Nc2nc(N[C@@H]3CCOC[C@@H]3N)nnc2C(N)=O)cc2ccsc12 | 0.37 nM |
